# Species on record: Rattus norvegicus
# Assay: DrugMatrix - Regimen: Daily Repeat
# Format: toxicity, organism-based, Sprague-Dawley
# Set-up: regimen Daily Repeat, gender Male, age 6-8 weeks
# Details: in vivo, po, route oral GAVAGE, vehicle 100 % WATER; for ABSOLUTE BASOPHIL / ABSOLUTE EOSINOPHIL / ABSOLUTE LYMPHOCYTE / ABSOLUTE MONOCYTE / ABSOLUTE SEGMENTED NEUTROPHIL / BASOPHIL / EOSINOPHIL / ERYTHROCYTE COUNT / HEMATOCRIT / HEMOGLOBIN / LEUKOCYTE COUNT / LYMPHOCYTE / MEAN CORPUSCULAR HEMOGLOBIN / MEAN CORPUSCULAR HEMOGLOBIN CONCENTRATION / MEAN CORPUSCULAR VOLUME / MONOCYTE / NEUTROPHIL / NUCLEATED RED BLOOD CELLS / PLATELET COUNT: tissue Blood; for ALANINE AMINOTRANSFERASE / ALBUMIN / ALKALINE PHOSPHATASE / ASPARTATE AMINOTRANSFERASE / BLOOD UREA NITROGEN / CARBON DIOXIDE / CHLORIDE / CHOLESTEROL / CREATINE PHOSPHOKINASE / CREATININE / GLUCOSE / LACTATE DEHYDROGENASE / LIPASE / PHOSPHORUS / POTASSIUM / SODIUM / TOTAL BILIRUBIN / TOTAL PROTEIN / URIC ACID: tissue Plasma
# [1] = 120 mg/kg, 120 h, dose level Low, time 5 day
# [2] = 1200 mg/kg, 72 h, dose level High, time 3 day
# [3] = 1200 mg/kg, 120 h, dose level High, time 5 day
compound,measurement,setting,value
Cc1onc(-c2ccccc2Cl)c1C(=O)N[C@@H]1C(=O)N2[C@@H]1SC(C)(C)[C@@H]2C(=O)O [CLOXACILLIN],ABSOLUTE BASOPHIL,[1],0 CELLS/uL
same,ABSOLUTE EOSINOPHIL,[1],0 CELLS/uL
same,ABSOLUTE LYMPHOCYTE,[1],14591.67 CELLS/uL
same,ABSOLUTE MONOCYTE,[1],338 CELLS/uL
same,ABSOLUTE SEGMENTED NEUTROPHIL,[1],1970.33 CELLS/uL
same,BASOPHIL,[1],0%
same,EOSINOPHIL,[1],0%
same,ERYTHROCYTE COUNT,[1],5.42 x10E6/uL
same,HEMATOCRIT,[1],34.13%
same,HEMOGLOBIN,[1],13.57 G/DL
same,LEUKOCYTE COUNT,[1],16.9 x10E3/uL
same,LYMPHOCYTE,[1],86.33%
same,MEAN CORPUSCULAR HEMOGLOBIN,[1],25.07 pg
same,MEAN CORPUSCULAR HEMOGLOBIN CONCENTRATION,[1],39.73 G/DL
same,MEAN CORPUSCULAR VOLUME,[1],62.97 fL
same,MONOCYTE,[1],2%
same,NEUTROPHIL,[1],11.67%
same,NUCLEATED RED BLOOD CELLS,[1],0 /100WBC
same,PLATELET COUNT,[1],1237.33 x10E3/uL
same,ALANINE AMINOTRANSFERASE,[1],51.33 u/L
same,ALBUMIN,[1],4.13 G/DL
same,ALKALINE PHOSPHATASE,[1],349.67 u/L
same,ASPARTATE AMINOTRANSFERASE,[1],77.33 u/L
same,BLOOD UREA NITROGEN,[1],15.67 mg/dL
same,CARBON DIOXIDE,[1],27 mmol/L
same,CHLORIDE,[1],101.33 MEQ/L
same,CHOLESTEROL,[1],69.67 mg/dL
same,CREATINE PHOSPHOKINASE,[1],381.33 u/L
same,CREATININE,[1],0.14 mg/dL
same,GLUCOSE,[1],149.67 mg/dL
same,LACTATE DEHYDROGENASE,[1],190 u/L
same,LIPASE,[1],8.33 u/L
same,PHOSPHORUS,[1],11.87 mg/dL
same,POTASSIUM,[1],6.69 MEQ/L
same,SODIUM,[1],143.53 MEQ/L
same,TOTAL BILIRUBIN,[1],0.13 mg/dL
same,TOTAL PROTEIN,[1],5.77 G/DL
same,URIC ACID,[1],1.5 mg/dL
same,ABSOLUTE BASOPHIL,[2],0 CELLS/uL
same,ABSOLUTE EOSINOPHIL,[2],0 CELLS/uL
same,ABSOLUTE LYMPHOCYTE,[2],9313 CELLS/uL
same,ABSOLUTE MONOCYTE,[2],140.33 CELLS/uL
same,ABSOLUTE SEGMENTED NEUTROPHIL,[2],1013.33 CELLS/uL
same,BASOPHIL,[2],0%
same,EOSINOPHIL,[2],0%
same,ERYTHROCYTE COUNT,[2],4.48 x10E6/uL
same,HEMATOCRIT,[2],28.27%
same,HEMOGLOBIN,[2],11.27 G/DL
same,LEUKOCYTE COUNT,[2],10.47 x10E3/uL
same,LYMPHOCYTE,[2],90%
same,MEAN CORPUSCULAR HEMOGLOBIN,[2],25.37 pg
same,MEAN CORPUSCULAR HEMOGLOBIN CONCENTRATION,[2],39.93 G/DL
same,MEAN CORPUSCULAR VOLUME,[2],63.4 fL
same,MONOCYTE,[2],1%
same,NEUTROPHIL,[2],9%
same,NUCLEATED RED BLOOD CELLS,[2],0 /100WBC
same,PLATELET COUNT,[2],825.33 x10E3/uL
same,ALANINE AMINOTRANSFERASE,[2],72 u/L
same,ALBUMIN,[2],4.03 G/DL
same,ALKALINE PHOSPHATASE,[2],414 u/L
same,ASPARTATE AMINOTRANSFERASE,[2],89.67 u/L
same,BLOOD UREA NITROGEN,[2],15 mg/dL
same,CARBON DIOXIDE,[2],22.33 mmol/L
same,CHLORIDE,[2],102.67 MEQ/L
same,CHOLESTEROL,[2],86.33 mg/dL
same,CREATINE PHOSPHOKINASE,[2],306 u/L
same,CREATININE,[2],0.16 mg/dL
same,GLUCOSE,[2],144.67 mg/dL
same,LACTATE DEHYDROGENASE,[2],170 u/L
same,LIPASE,[2],10.67 u/L
same,PHOSPHORUS,[2],12.23 mg/dL
same,POTASSIUM,[2],6.82 MEQ/L
same,SODIUM,[2],143.7 MEQ/L
same,TOTAL BILIRUBIN,[2],0.13 mg/dL
same,TOTAL PROTEIN,[2],5.7 G/DL
same,URIC ACID,[2],1.7 mg/dL
same,ABSOLUTE BASOPHIL,[3],0 CELLS/uL
same,ABSOLUTE EOSINOPHIL,[3],148.67 CELLS/uL
same,ABSOLUTE LYMPHOCYTE,[3],18945 CELLS/uL
same,ABSOLUTE MONOCYTE,[3],0 CELLS/uL
same,ABSOLUTE SEGMENTED NEUTROPHIL,[3],1139.67 CELLS/uL
same,BASOPHIL,[3],0%
same,EOSINOPHIL,[3],0.67%
same,ERYTHROCYTE COUNT,[3],5.75 x10E6/uL
same,HEMATOCRIT,[3],35.27%
same,HEMOGLOBIN,[3],13.97 G/DL
same,LEUKOCYTE COUNT,[3],20.23 x10E3/uL
same,LYMPHOCYTE,[3],93.67%
same,MEAN CORPUSCULAR HEMOGLOBIN,[3],24.3 pg
same,MEAN CORPUSCULAR HEMOGLOBIN CONCENTRATION,[3],39.6 G/DL
same,MEAN CORPUSCULAR VOLUME,[3],61.33 fL
same,MONOCYTE,[3],0%
same,NEUTROPHIL,[3],5.67%
same,NUCLEATED RED BLOOD CELLS,[3],0 /100WBC
same,PLATELET COUNT,[3],1362 x10E3/uL
same,ALANINE AMINOTRANSFERASE,[3],67 u/L
same,ALBUMIN,[3],4.2 G/DL
same,ALKALINE PHOSPHATASE,[3],356 u/L
same,ASPARTATE AMINOTRANSFERASE,[3],78 u/L
same,BLOOD UREA NITROGEN,[3],17.67 mg/dL
same,CARBON DIOXIDE,[3],26 mmol/L
same,CHLORIDE,[3],102.67 MEQ/L
same,CHOLESTEROL,[3],75.33 mg/dL
same,CREATINE PHOSPHOKINASE,[3],220.67 u/L
same,CREATININE,[3],0.15 mg/dL
same,GLUCOSE,[3],159.67 mg/dL
same,LACTATE DEHYDROGENASE,[3],104 u/L
same,LIPASE,[3],9.33 u/L
same,PHOSPHORUS,[3],11.63 mg/dL
same,POTASSIUM,[3],6.63 MEQ/L
same,SODIUM,[3],144.07 MEQ/L
same,TOTAL BILIRUBIN,[3],0.13 mg/dL
same,TOTAL PROTEIN,[3],6.17 G/DL
same,URIC ACID,[3],2 mg/dL

# From ChEMBL document CHEMBL3885881, “DrugMatrix”
